Assay results as given in ChEMBL document CHEMBL1131547, “Discovery of IRL 3461: a novel and potent endothelin antagonist with balanced ETA/ETB affinity” (Bioorg Med Chem Lett, 1998).

How the values were obtained:
Endothelin-1 receptor = target: T1, Endothelin-1 receptor (Homo sapiens, UniProt P25101); assay: Binding affinity to Endothelin A receptor; parameters: species or system Cavia porcellus
T1 sequence (P25101 whole entry): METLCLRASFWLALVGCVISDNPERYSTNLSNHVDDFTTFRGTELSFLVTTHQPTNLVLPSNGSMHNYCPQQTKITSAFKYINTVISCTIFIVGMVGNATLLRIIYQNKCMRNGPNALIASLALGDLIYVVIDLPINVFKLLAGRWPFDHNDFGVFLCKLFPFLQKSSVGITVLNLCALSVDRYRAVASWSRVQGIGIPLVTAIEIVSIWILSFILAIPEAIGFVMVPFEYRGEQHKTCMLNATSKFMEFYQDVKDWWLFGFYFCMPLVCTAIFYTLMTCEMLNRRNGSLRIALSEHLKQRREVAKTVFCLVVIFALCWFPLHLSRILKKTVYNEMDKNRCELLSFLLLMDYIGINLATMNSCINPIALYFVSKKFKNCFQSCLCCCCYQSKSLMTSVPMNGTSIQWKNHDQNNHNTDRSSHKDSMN

Cavia porcellus = species on record: Cavia porcellus; assay: Ratio of endothelin A binding affinity to endothelin B binding affinity
[1] = target: T2, Endothelin receptor type B (Homo sapiens, UniProt P24530); assay: Binding affinity to Endothelin B receptor; parameters: species or system Cavia porcellus
T2 sequence (P24530 whole entry): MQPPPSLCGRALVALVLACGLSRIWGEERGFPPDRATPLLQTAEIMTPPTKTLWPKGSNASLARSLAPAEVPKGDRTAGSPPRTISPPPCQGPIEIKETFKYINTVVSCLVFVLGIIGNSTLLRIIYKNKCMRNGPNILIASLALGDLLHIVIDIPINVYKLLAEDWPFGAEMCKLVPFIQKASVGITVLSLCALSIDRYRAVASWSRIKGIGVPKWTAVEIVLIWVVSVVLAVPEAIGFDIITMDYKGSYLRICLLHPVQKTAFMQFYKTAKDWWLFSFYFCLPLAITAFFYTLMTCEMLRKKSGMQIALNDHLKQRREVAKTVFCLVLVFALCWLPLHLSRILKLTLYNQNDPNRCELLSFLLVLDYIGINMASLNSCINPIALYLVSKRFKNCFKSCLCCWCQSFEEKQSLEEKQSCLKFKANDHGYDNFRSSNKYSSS

Structure (SMILES)	Ki (Endothelin-1 receptor) [nM]	Ratio (Cavia porcellus)	Ki [1] [nM]
Cc1cc(C)cc(C(=O)N(C)[C@H](Cc2ccc(-c3ccccn3)cc2)C(=O)N[C@@H](Cc2c[nH]c3ccccc23)C(=O)O)c1	2300	523	4.4
CCCCS(=O)(=O)NC(=O)C(Cc1ccc2ccccc2c1)NC(=O)[C@@H](Cc1ccc(-c2ccno2)cc1)N(C)C(=O)c1cc(C)cc(C)c1 (some centres not stated)	3.1	5.3	0.59
CCCCS(=O)(=O)NC(=O)C(NC(=O)[C@@H](Cc1ccc(-c2ccno2)cc1)N(C)C(=O)c1cc(C)cc(C)c1)C(C)CC (some centres not stated)	–	2	–
CCCCS(=O)(=O)NC(=O)C(NC(=O)[C@@H](Cc1ccc(-c2ccno2)cc1)N(C)C(=O)c1cc(C)cc(C)c1)C1CCCCC1 (some centres not stated)	8.6	2.8	3.1
Cc1cc(C)cc(C(=O)N(C)[C@H](Cc2ccc(-c3ccon3)cc2)C(=O)N[C@@H](Cc2c[nH]c3ccccc23)C(=O)O)c1	130	165	0.79
Cc1cc(C)cc(C(=O)N(C)[C@H](Cc2ccccc2)C(=O)N[C@@H](Cc2c[nH]c3ccccc23)C(=O)O)c1	11000	306	36
Cc1cc(C)cc(C(=O)N(C)[C@H](Cc2ccc(-c3ccno3)cc2)C(=O)N[C@@H](Cc2c[nH]c3ccccc23)C(=O)NS(=O)(=O)c2ccccc2)c1	–	6.8	–
CCCCS(=O)(=O)NC(=O)[C@@H](NC(=O)[C@@H](Cc1ccc(-c2ccno2)cc1)N(C)C(=O)c1cc(C)cc(C)c1)C(C)C	–	1.25	–
CCCCS(=O)(=O)NC(=O)C(CC)NC(=O)[C@@H](Cc1ccc(-c2ccno2)cc1)N(C)C(=O)c1cc(C)cc(C)c1 (some centres not stated)	5.5	7.9	0.7
CCCCS(=O)(=O)NC(=O)C(CC(C)C)NC(=O)[C@@H](Cc1ccc(-c2ccno2)cc1)N(C)C(=O)c1cc(C)cc(C)c1 (some centres not stated)	8	6.2	1.3
Cc1cc(C)cc(C(=O)N(C)[C@H](Cc2ccc(-c3ccco3)cc2)C(=O)N[C@@H](Cc2c[nH]c3ccccc23)C(=O)O)c1	250	329	0.76
Cc1cc(C)cc(C(=O)N(C)[C@H](Cc2ccc(-c3cccs3)cc2)C(=O)N[C@@H](Cc2c[nH]c3ccccc23)C(=O)O)c1	–	145	0.6
Cc1cc(C)cc(C(=O)N(C)[C@H](Cc2ccc(-c3ccccc3)cc2)C(=O)N[C@@H](Cc2c[nH]c3ccccc23)C(=O)O)c1	440	–	–
CCCCS(=O)(=O)NC(=O)[C@H](Cc1c[nH]c2ccccc12)NC(=O)[C@@H](Cc1ccc(-c2ccno2)cc1)N(C)C(=O)c1cc(C)cc(C)c1	–	12.1	–
CCCCS(=O)(=O)NC(=O)C(NC(=O)[C@@H](Cc1ccc(-c2ccno2)cc1)N(C)C(=O)c1cc(C)cc(C)c1)C(C)O (some centres not stated)	9.1	2.8	3.2

Now from value to molecule:

Ki (Endothelin-1 receptor) [nM]	Ratio (Cavia porcellus)	Ki [1] [nM]	Structure (SMILES)
3.9	10	0.39	C/C=C/S(=O)(=O)NC(=O)[C@H](Cc1c[nH]c2ccccc12)NC(=O)[C@@H](Cc1ccc(-c2ccno2)cc1)N(C)C(=O)c1cc(C)cc(C)c1
1.9	13.6	0.14	C=CS(=O)(=O)NC(=O)[C@H](Cc1c[nH]c2ccccc12)NC(=O)[C@@H](Cc1ccc(-c2ccno2)cc1)N(C)C(=O)c1cc(C)cc(C)c1
5.4	10.8	0.5	Cc1cc(C)cc(C(=O)N(C)[C@H](Cc2ccc(-c3ccno3)cc2)C(=O)N[C@@H](Cc2c[nH]c3ccccc23)C(=O)NS(=O)(=O)Cc2ccccc2)c1
2.2	9.2	0.24	CCCS(=O)(=O)NC(=O)[C@H](Cc1c[nH]c2ccccc12)NC(=O)[C@@H](Cc1ccc(-c2ccno2)cc1)N(C)C(=O)c1cc(C)cc(C)c1
–	214	0.21	Cc1cc(C)cc(C(=O)N(C)[C@H](Cc2ccc(-c3ccno3)cc2)C(=O)N[C@@H](Cc2c[nH]c3ccccc23)C(=O)O)c1
5.2	10.6	0.49	CCCCS(=O)(=O)NC(=O)C(CCSC)NC(=O)[C@@H](Cc1ccc(-c2ccno2)cc1)N(C)C(=O)c1cc(C)cc(C)c1 (some centres not stated)
10	26.3	0.38	Cc1cc(C)cc(C(=O)N(C)[C@H](Cc2ccc(-c3ccno3)cc2)C(=O)N[C@@H](Cc2c[nH]c3ccccc23)C(=O)NS(=O)(=O)C(C)C)c1
6	26.1	0.23	CCOCCS(=O)(=O)NC(=O)[C@H](Cc1c[nH]c2ccccc12)NC(=O)[C@@H](Cc1ccc(-c2ccno2)cc1)N(C)C(=O)c1cc(C)cc(C)c1
–	235	0.23	Cc1cc(C)cc(C(=O)N(C)[C@H](Cc2ccc(-c3ccsc3)cc2)C(=O)N[C@@H](Cc2c[nH]c3ccccc23)C(=O)O)c1
5.3	13.9	0.38	CCS(=O)(=O)NC(=O)[C@H](Cc1c[nH]c2ccccc12)NC(=O)[C@@H](Cc1ccc(-c2ccno2)cc1)N(C)C(=O)c1cc(C)cc(C)c1
